molecular target: T1, F508del (Homo sapiens, UniProt P13569, DEL508-508); test: Protocol 2: FRET membrane potential optical assay (VIPR), identification of correction compounds; format: cell-based; settings: F508del CFTR modulator activity; compounds of Table 1; read-out: EC30
T1 construct: expressed in transfected cells
In short: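 Mouse NIH3T3 cells, stable F508del; cpd 16 hrs, 37° C., serum-free; pos ctrl 27° C. 16 hrs. Rinse in Krebs Ringers, dye load, then add 10 μM forskolin + 20 μM genistein with Cl^−-free (gluconate) medium; depolarization by FRET voltage dyes.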

T1 sequence (P13569 with tags, fused parts or gaps DEL508-508): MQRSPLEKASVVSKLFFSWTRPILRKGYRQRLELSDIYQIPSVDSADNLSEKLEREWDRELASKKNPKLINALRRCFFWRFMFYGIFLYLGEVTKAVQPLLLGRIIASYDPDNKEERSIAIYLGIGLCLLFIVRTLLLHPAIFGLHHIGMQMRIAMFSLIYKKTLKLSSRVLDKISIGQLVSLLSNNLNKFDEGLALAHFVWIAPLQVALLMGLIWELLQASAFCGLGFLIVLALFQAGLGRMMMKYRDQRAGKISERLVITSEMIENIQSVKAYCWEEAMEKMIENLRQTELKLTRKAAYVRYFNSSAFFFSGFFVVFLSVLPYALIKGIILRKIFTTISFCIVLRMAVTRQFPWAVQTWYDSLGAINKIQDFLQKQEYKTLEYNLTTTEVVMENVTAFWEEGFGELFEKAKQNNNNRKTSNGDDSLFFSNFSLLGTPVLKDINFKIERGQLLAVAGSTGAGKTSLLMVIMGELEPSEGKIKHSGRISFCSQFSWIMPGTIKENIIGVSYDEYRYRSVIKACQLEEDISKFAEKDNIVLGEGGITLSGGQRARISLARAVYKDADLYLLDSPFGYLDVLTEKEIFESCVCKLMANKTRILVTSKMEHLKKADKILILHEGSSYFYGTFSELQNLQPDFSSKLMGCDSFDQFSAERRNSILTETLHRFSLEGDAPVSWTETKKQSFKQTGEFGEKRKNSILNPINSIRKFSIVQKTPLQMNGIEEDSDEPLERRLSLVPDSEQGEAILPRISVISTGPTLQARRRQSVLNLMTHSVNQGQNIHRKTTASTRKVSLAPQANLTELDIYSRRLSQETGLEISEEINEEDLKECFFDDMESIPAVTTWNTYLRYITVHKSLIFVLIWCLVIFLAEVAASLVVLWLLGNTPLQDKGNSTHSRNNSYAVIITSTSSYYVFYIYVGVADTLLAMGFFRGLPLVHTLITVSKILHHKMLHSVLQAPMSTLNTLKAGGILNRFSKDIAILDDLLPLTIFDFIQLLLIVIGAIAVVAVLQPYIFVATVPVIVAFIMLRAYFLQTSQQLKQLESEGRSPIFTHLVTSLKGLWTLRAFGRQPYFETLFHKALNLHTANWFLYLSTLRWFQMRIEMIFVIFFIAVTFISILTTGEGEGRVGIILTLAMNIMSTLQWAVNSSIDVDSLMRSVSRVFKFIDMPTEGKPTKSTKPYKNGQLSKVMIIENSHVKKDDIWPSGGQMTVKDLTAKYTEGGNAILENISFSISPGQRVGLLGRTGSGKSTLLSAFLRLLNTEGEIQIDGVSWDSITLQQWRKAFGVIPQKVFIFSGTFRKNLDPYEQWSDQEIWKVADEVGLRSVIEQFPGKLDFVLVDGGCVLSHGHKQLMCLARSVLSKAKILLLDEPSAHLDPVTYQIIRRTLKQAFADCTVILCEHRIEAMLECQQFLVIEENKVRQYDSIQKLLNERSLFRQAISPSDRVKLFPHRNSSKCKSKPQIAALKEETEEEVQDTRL

Row | EC30 [µM] | Structure (SMILES)
1 | < 3 | C[C@@H]1CN(c2nc(C3CC4CCC3C4)ccc2C(=O)NS(=O)(=O)c2cccnc2N)C(C)(C)C1 (stereo partly drawn) [Compound 2097, N-[(2-amino-3-pyridyl)sulfonyl]-6-norbornan-2-yl-2-[(4S)-2,2,4-trimethylpyrrolidin-1-yl]pyridine-3-carboxamide]
2 | < 3 | CC1CN(c2ncccc2C(=O)NS(=O)(=O)c2cccc(N3CCc4ccccc4C3)n2)C(C)(C)C1 (stereo not drawn) [Compound 2098, N—[[6-(3,4-dihydro-1H-isoquinolin-2-yl)-2-pyridyl]sulfonyl]-2-(2,2,4-trimethylpyrrolidin-1-yl)pyridine-3-carboxamide]
3 | < 3 | CC1CN(c2ncccc2C(=O)NS(=O)(=O)c2cccc(OCc3ccc(F)cc3F)n2)C(C)(C)C1 (stereo not drawn) [Compound 2099, N—[[6-[(2,4-difluorophenyl)methoxy]-2-pyridyl]sulfonyl]-2-(2,2,4-trimethylpyrrolidin-1-yl)pyridine-3-carboxamide]
4 | < 3 | COc1cccc(-c2ccc(C(=O)NS(=O)(=O)c3ccc[nH]c3=O)c(N3C[C@@H](C)CC3(C)C)n2)n1 [Compound 2101, 6-(6-methoxy-2-pyridyl)-N-[(2-oxo-1H-pyridin-3-yl)sulfonyl]-2-[(4S)-2,2,4-trimethylpyrrolidin-1-yl]pyridine-3-carboxamide]
5 | < 3 | CC1CN(c2ncccc2C(=O)NS(=O)(=O)c2cccc(Nc3ccc(F)cc3)n2)C(C)(C)C1 (stereo not drawn) [Compound 2102, N—[[6-(4-fluoroanilino)-2-pyridyl]sulfonyl]-2-(2,2,4-trimethylpyrrolidin-1-yl)pyridine-3-carboxamide]
6 | < 3 | CCOc1cccc(F)c1-c1ccc(C(=O)NS(=O)(=O)c2cccnc2N)c(N2C[C@@H](C)CC2(C)C)n1 [Compound 2103, N-[(2-amino-3-pyridyl)sulfonyl]-6-(2-ethoxy-6-fluoro-phenyl)-2-[(4S)-2,2,4-trimethylpyrrolidin-1-yl]pyridine-3-carboxamide]
7 | < 3 | C[C@@H]1CN(c2nc(-c3ccc4c(c3)OC(F)(F)O4)ccc2C(=O)NS(=O)(=O)c2cccc(N)n2)C(C)(C)C1 [Compound 2104, N-[(6-amino-2-pyridyl)sulfonyl]-6-(2,2-difluoro-1,3-benzodioxol-5-yl)-2-[(4S)-2,2,4-trimethylpyrrolidin-1-yl]pyridine-3-carboxamide]
8 | < 3 | C[C@@H]1CN(c2nc(-c3cc(F)ccc3F)ccc2C(=O)NS(=O)(=O)c2cccnc2N)C(C)(C)C1 [Compound 2105, N-[(2-amino-3-pyridyl)sulfonyl]-6-(2,5-difluorophenyl)-2-[(4S)-2,2,4-trimethylpyrrolidin-1-yl]pyridine-3-carboxamide]
9 | < 3 | CC1CN(c2ncccc2C(=O)NS(=O)(=O)c2cccc(Nc3c(F)cc(F)cc3F)n2)C(C)(C)C1 (stereo not drawn) [Compound 2106, N—[[6-(2,4,6-trifluoroanilino)-2-pyridyl]sulfonyl]-2-(2,2,4-trimethylpyrrolidin-1-yl)pyridine-3-carboxamide]
10 | < 3 | CC1CN(c2ncccc2C(=O)NS(=O)(=O)c2cccc(N3CCC(Cc4ccccc4)CC3)n2)C(C)(C)C1 (stereo not drawn) [Compound 2107, N—[[6-(4-benzyl-1-piperidyl)-2-pyridyl]sulfonyl]-2-(2,2,4-trimethylpyrrolidin-1-yl)pyridine-3-carboxamide]
11 | < 3 | CC1CN(c2ncccc2C(=O)NS(=O)(=O)c2cccc(Oc3cccc(C(C)C)c3)n2)C(C)(C)C1 (stereo not drawn) [Compound 2108, N—[[6-(3-isopropylphenoxy)-2-pyridyl]sulfonyl]-2-(2,2,4-trimethylpyrrolidin-1-yl)pyridine-3-carboxamide]
12 | > 10 | C[C@@H]1CN(c2nc(-c3cccc(F)c3F)ccc2C(=O)NS(=O)(=O)N2CC[C@H](N)C2)C(C)(C)C1 [Compound 2110, N-[(3S)-3-aminopyrrolidin-1-yl]sulfonyl-6-(2,3-difluorophenyl)-2-[(4S)-2,2,4-trimethylpyrrolidin-1-yl]pyridine-3-carboxamide]
13 | < 3 | CC1CN(c2ncccc2C(=O)NS(=O)(=O)c2cccc(OCc3cnn(-c4ccccc4)c3)n2)C(C)(C)C1 (stereo not drawn) [Compound 2111, N—[[6-[(1-phenylpyrazol-4-yl)methoxy]-2-pyridyl]sulfonyl]-2-(2,2,4-trimethylpyrrolidin-1-yl)pyridine-3-carboxamide]
14 | 3 to 10 | CC1CN(c2ncc(-c3ccc(C4(CO)CC4)cc3)cc2C(=O)NS(=O)(=O)c2cccc(N)n2)C(C)(C)C1 (stereo not drawn) [Compound 2112, N-[(6-amino-2-pyridyl)sulfonyl]-5-[4-[1-(hydroxymethyl)cyclopropyl]phenyl]-2-(2,2,4-trimethylpyrrolidin-1-yl)pyridine-3-carboxamide]
15 | < 3 | CC(C)Cn1ccc(-c2ccc(C(=O)NS(=O)(=O)c3cccc(N)n3)c(N3C[C@@H](C)CC3(C)C)n2)n1 [Compound 2114, N-[(6-amino-2-pyridyl)sulfonyl]-6-(1-isobutylpyrazol-3-yl)-2-[(4S)-2,2,4-trimethylpyrrolidin-1-yl]pyridine-3-carboxamide]
16 | < 3 | CC1CN(c2ncccc2C(=O)NS(=O)(=O)c2cccc(OCC3COc4ccccc4O3)n2)C(C)(C)C1 (stereo not drawn) [Compound 2115, N—[[6-(2,3-dihydro-1,4-benzodioxin-3-ylmethoxy)-2-pyridyl]sulfonyl]-2-(2,2,4-trimethylpyrrolidin-1-yl)pyridine-3-carboxamide]
17 | < 3 | CC1CCN(c2cccc(S(=O)(=O)NC(=O)c3cccnc3N3CC(C)CC3(C)C)n2)C1 (stereo not drawn) [Compound 2116, N—[[6-(3-methylpyrrolidin-1-yl)-2-pyridyl]sulfonyl]-2-(2,2,4-trimethylpyrrolidin-1-yl)pyridine-3-carboxamide]
18 | < 3 | CC1CN(c2ncccc2C(=O)NS(=O)(=O)c2cccc(OCc3ccc(-n4cccn4)cc3)n2)C(C)(C)C1 (stereo not drawn) [Compound 2118, N—[[6-[(4-pyrazol-1-ylphenyl)methoxy]-2-pyridyl]sulfonyl]-2-(2,2,4-trimethylpyrrolidin-1-yl)pyridine-3-carboxamide]
19 | < 3 | CC1CN(c2ncccc2C(=O)NS(=O)(=O)c2cccc(NCCCCc3ccccc3)n2)C(C)(C)C1 (stereo not drawn) [Compound 2119, N—[[6-(4-phenylbutylamino)-2-pyridyl]sulfonyl]-2-(2,2,4-trimethylpyrrolidin-1-yl)pyridine-3-carboxamide]
20 | < 3 | CC(C)Oc1ccc(-c2ccc(C(=O)NS(=O)(=O)N3CC[C@H](N)C3)c(N3C[C@@H](C)CC3(C)C)n2)cc1 [Compound 2120, N-[(3S)-3-aminopyrrolidin-1-yl]sulfonyl-6-(4-isopropoxyphenyl)-2-[(4S)-2,2,4-trimethylpyrrolidin-1-yl]pyridine-3-carboxamide]
21 | < 3 | CCOC(=O)c1ccc(Nc2cccc(S(=O)(=O)NC(=O)c3cccnc3N3CC(C)CC3(C)C)n2)cc1 (stereo not drawn) [Compound 2122, ethyl 4-[[6-[[2-(2,2,4-trimethylpyrrolidin-1-yl)pyridine-3-carbonyl]sulfamoyl]-2-pyridyl]amino]benzoate]
22 | < 3 | CC1CN(c2ncccc2C(=O)NS(=O)(=O)c2cccc(N3CCC(Cc4ccccc4)C3)n2)C(C)(C)C1 (stereo not drawn) [Compound 2123, N—[[6-(3-benzylpyrrolidin-1-yl)-2-pyridyl]sulfonyl]-2-(2,2,4-trimethylpyrrolidin-1-yl)pyridine-3-carboxamide]
23 | < 3 | COc1cc(-c2ccc(C(=O)NS(=O)(=O)c3cccnc3N)c(N3C[C@@H](C)CC3(C)C)n2)ccc1F [Compound 2124, N-[(2-amino-3-pyridyl)sulfonyl]-6-(4-fluoro-3-methoxy-phenyl)-2-[(4S)-2,2,4-trimethylpyrrolidin-1-yl]pyridine-3-carboxamide]
24 | < 3 | C[C@@H]1CN(c2nc(-c3ccc4[nH]ccc4c3)ccc2C(=O)NS(=O)(=O)c2cccnc2N)C(C)(C)C1 [Compound 2125, N-[(2-amino-3-pyridyl)sulfonyl]-6-(1H-indol-5-yl)-2-[(4S)-2,2,4-trimethylpyrrolidin-1-yl]pyridine-3-carboxamide]
25 | < 3 | Cc1ccc(-c2ccc(C(=O)NS(=O)(=O)c3cccnc3N)c(N3C[C@@H](C)CC3(C)C)n2)c2ccccc12 [Compound 2126, N-[(2-amino-3-pyridyl)sulfonyl]-6-(4-methyl-1-naphthyl)-2-[(4S)-2,2,4-trimethylpyrrolidin-1-yl]pyridine-3-carboxamide]
26 | < 3 | Cc1cc(C)cc(-c2ccc(C(=O)NS(=O)(=O)c3cccnc3N)c(N3C[C@@H](C)CC3(C)C)n2)c1 [Compound 2127, N-[(2-amino-3-pyridyl)sulfonyl]-6-(3,5-dimethylphenyl)-2-[(4S)-2,2,4-trimethylpyrrolidin-1-yl]pyridine-3-carboxamide]

Row | Structure (SMILES) | EC30 [µM]
27 | C[C@@H]1CN(c2nc(OC3CCCC3)c(F)cc2C(=O)NS(=O)(=O)c2cccc(N)n2)C(C)(C)C1 [Compound 2100, N-[(6-amino-2-pyridyl)sulfonyl]-6-(cyclopentoxy)-5-fluoro-2-[(4S)-2,2,4-trimethylpyrrolidin-1-yl]pyridine-3-carboxamide] | < 3
28 | CC(C)COc1cc(F)cc(-c2ccc(C(=O)NS(=O)(=O)C3CCCC3)c(N3C[C@@H](C)CC3(C)C)n2)c1 [Compound 2113, N-cyclopentylsulfonyl-6-(3-fluoro-5-isobutoxy-phenyl)-2-[(4S)-2,2,4-trimethylpyrrolidin-1-yl]pyridine-3-carboxamide] | < 3
29 | CC(C)COc1cc(F)cc(-c2ccc(C(=O)NS(=O)(=O)c3cccc(N)n3)c(N3CC(C)C3)n2)c1 [Compound 2117, N-[(6-amino-2-pyridyl)sulfonyl]-6-(3-fluoro-5-isobutoxy-phenyl)-2-(3-methylazetidin-1-yl)pyridine-3-carboxamide] | < 3
30 | CC(C)COc1cc(F)cc(-c2ncc(C(=O)NS(=O)(=O)c3cccc(N)n3)c(N3C[C@@H](C)CC3(C)C)n2)c1 [Compound 2121, N-[(6-amino-2-pyridyl)sulfonyl]-2-(3-fluoro-5-isobutoxy-phenyl)-4-[(4S)-2,2,4-trimethylpyrrolidin-1-yl]pyrimidine-5-carboxamide] | < 3
